{"source": "paper PMC5704913", "about": "(Toxicology and applied pharmacology, 2017)", "key": {"SOD activity assay": {"test": "SOD activity assay", "assay_type": "biochemical", "settings": "unit = amount that inhibits one-half the formation of adrenochrome at pH 10.2"}, "H2O2 scavenging assay": {"test": "H2O2 scavenging assay", "assay_type": "biochemical", "settings": "read-out: H2O2 IC50; concentration that scavenged 50% of H2O2; 50 µM H2O2, 1 minute"}, "[1]": {"system": "respiring brain mitochondria", "settings": "ref Castello et al., 2008; cited from earlier work"}, "MPTP-treated mice": {"system": "MPTP-treated mice", "settings": "oral administration; ref Liang et al., 2007; cited from earlier work"}, "[2]": {"test": "Brain manganese levels by ICPMS after 7 days daily dosing", "assay_type": "in vivo, C57BL/6 mice", "settings": "15 mg/kg i.p. daily for 7 days"}, "C57BL/6 mice": {"system": "C57BL/6 mice", "test": "Open field test and accelerated rotarod test", "assay_type": "in vivo", "settings": "15 mg/kg i.p. daily for 7 days"}}, "note": "“Also recorded” adds a separate entry of the source.", "data": [{"smiles": "COC(=O)c1c2nc(c(C(F)(F)F)c3ccc([n-]3)c(C(=O)OC)c3nc(c(C(F)(F)F)c4ccc1[n-]4)C=C3)C=C2.[Cl-].[Mn+3]", "note": "[AEOL 11207]", "values": [{"measurement": "SOD Activity", "setting": "SOD activity assay", "result": 124, "unit": "U/mg"}, {"measurement": "IC50", "setting": "H2O2 scavenging assay", "result": 104, "unit": "nM"}, {"measurement": "H2O2 scavenging in respiring brain mitochondria (in words)", "setting": "[1]", "result": "potent H2O2 scavengers"}, {"measurement": "effect on MPTP-induced neurotoxicity (in words)", "setting": "MPTP-treated mice", "result": "inhibited MPTP-induced neurotoxicity"}]}, {"smiles": "[Cl][Mn][Cl]", "note": "[MnCl2]", "values": [{"measurement": "brain manganese levels vs vehicle (in words)", "setting": "[2]", "result": "increased brain manganese levels significantly"}, {"measurement": "increase of brain manganese levels", "setting": "[2]", "result": "~ 10 fold"}, {"measurement": "neurobehavioral changes (open field, rotarod) vs vehicle", "setting": "C57BL/6 mice", "result": "significant deficit in movement; also recorded: significant rotarod deficit"}]}]}
